The values below come from the supplement of paper PMC4862054.

Holding throughout (conditions): 72 h
In test [1] the test system is HDQ-P1. In a few lines: (§1)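 The reported EC50 was fitted from percent-inhibition dose-response curves and censored at the highest concentration. Breast cancer cell lines (20 µl suspension) were added to 384-well plates containing compound in 5 µl medium and incubated 72 h, and viability was read with 2.5 µl CellTiter-Blue over 2 h at 37 °C at 560/590 nm. Each plate was normalised to vehicle and a positive kill control and checked by Z'-factor, and rows with zero drug sensitivity score were dropped.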

In test [2] the test system is MDA-MB-436. In a few lines:
(§2)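 Two sequential readouts followed a 72 h incubation of breast cancer cell lines with compound at 5 concentrations in 10-fold steps over a compound-specific 10,000-fold range: CellTox Green fluorescence (485/520 nm) for cell death, then CellTiter-Glo luminescence, after 10 min at room temperature, for viability. Each plate was normalised to 0.1 % DMSO and a positive kill control. Dose-response curves were fitted for EC50, censored at the top concentration.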

The subject of test [3] is MDA-MB-468. Summed up:
as §2

The test system of test [4] is CAL-51. In a few lines: as §2
Test [5] deals with MFM-223. In a few lines:
as §2

Test [6] has as its system HDQ-P1. In a few lines:
as §2
The source holds these as a separate data set.

In test [7] the test system is CAL-120. Summed up:
as §2

Test [8] concerns HCC1599. Summed up:
as §2

In test [9] the test system is CAL-148. As to the method: (§3)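 Drug sensitivity and resistance testing (DSRT) of breast cancer cell lines in 384-well plates, 5 concentrations in 10-fold dilutions over a compound-specific 10,000-fold range. After 72 h, cytotoxicity was read by CellTox Green fluorescence and viability by CellTiter-Glo luminescence (multiplexed), normalised to DMSO and benzethonium chloride controls. EC50 is the inflection point of the fitted dose-response curve (bottom asymptote free, so it can be relative for partial curves) and is censored at the highest tested concentration. Rows with DSS 0 (no meaningful response) were excluded.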

The subject of test [10] is MFM-223. Here is the method:
as §3
The source holds these as a separate data set.

Test [11] has as its system MCF-10A. Here is the method:
as §3

Test [12] has as its system BT-474. In a few lines: as §1
Test [13] deals with BT-474. Summed up:
as §2
This is another data set of the same source.

The subject of test [14] is HCC1937. Summed up: as §2
Test [15] relates to DU-4475. Summed up: as §2
Test [16] has as its system SK-BR-3. In a few lines:
as §2

The subject of test [17] is CAL-148. Summed up: as §2
This is another data set of the same source.

In test [18] the test system is MDA-MB-231. Summed up: as §2
Test [19] relates to HCC1143. Summed up:
as §2

The subject of test [20] is MDA-MB-453. Summed up:
as §2

In test [21] the test system is BT-549. Summed up:
as §2

The subject of test [22] is CAL-85-1. In a few lines:
as §2

The subject of test [23] is MCF-10A. In a few lines: as §2
This is another data set of the same source.

In test [24] the test system is Hs578T. In a few lines: as §2
Test [25] deals with MDA-MB-436. Here is the method:
as §3
The source holds these as a separate data set.

In test [26] the test system is HDQ-P1. Here is the method: as §3
This is another data set of the same source.

Test [27] deals with MDA-MB-231. As to the method: as §3
The source holds these as a separate data set.

Test [28] concerns MDA-MB-453. As to the method: as §3
The source holds these as a separate data set.

Consider `CNC(=O)c1ccccc1Sc1ccc2c(/C=C/c3ccccn3)n[nH]c2c1` [Axitinib], for which, in test [1], the “EC50, CellTiter-Blue viability” value came to 474 nM. Further, the “EC50, CellTiter-Glo” value in [2] came to 3040 nM; in test [3], 3880 nM; in test [4], 465 nM; in test [5], 348 nM; in [6] it was 4770 nM; in test [7] it was 3570 nM. In addition, the “EC50, CellTiter-Glo” value in test [8] was found to be 881 nM.
Regarding `CC(=O)[C@]1(O)Cc2c(O)c3c(c(O)c2[C@@H](O[C@H]2C[C@H](N)[C@H](O)[C@H](C)O2)C1)C(=O)c1ccccc1C3=O` [Idarubicin], the results for the “EC50, CellTiter-Blue viability” value in test [1] and in [12] were 277 nM and 116 nM, respectively. Further, the “EC50, CellTox Green” value in test [9] amounted to 31.9 nM; in test [10] it was 806 nM; in test [11], 642 nM. Also, the “EC50, CellTiter-Glo” value is 134 nM in test [2]; 404 nM in [13]; 665 nM in [14]; 193 nM in test [15]; 185 nM in test [16]; 152 nM in [3]. For the same molecule, the “EC50, CellTiter-Glo” value in test [17] is 125 nM; in test [4], 49.1 nM; in test [5] it was 470 nM; in test [6], 837 nM; in test [18], 286 nM; in [7] it was 580 nM. The “EC50, CellTiter-Glo” value in test [19] amounted to 531 nM; in test [8], 466 nM; in [20] it was 750 nM; in [21], 144 nM; in [22], 252 nM; in [23], 455 nM. The “EC50, CellTiter-Glo” value in test [24] stood at 281 nM.
In the case of `COc1cc(Nc2c(C#N)cnc3cc(OCCCN4CCN(C)CC4)c(OC)cc23)c(Cl)cc1Cl` [Bosutinib], the results for the “EC50, CellTiter-Blue viability” value in test [1] and in test [12] were 2550 nM and 3120 nM, respectively. Moreover, the “EC50, CellTox Green” value in test [25] is 6620 nM; in [9], 2050 nM; in test [26] it was 5940 nM; in test [27], 2030 nM; in test [28], 7280 nM; in [11] it was 2080 nM. The “EC50, CellTiter-Glo” value in test [2] was determined as 2170 nM; in test [13], 2480 nM; in test [14] it was 2100 nM; in test [16], 3120 nM; in test [3] it was 1920 nM; in [17], 7590 nM. Besides, the “EC50, CellTiter-Glo” value in test [4] is 1400 nM; in test [5], 1910 nM; in test [6], 972 nM; in test [18] it was 1810 nM; in test [7] it was 1450 nM; in test [19], 1440 nM. Besides, the “EC50, CellTiter-Glo” value in test [8] is 3160 nM; in [20] it was 3220 nM; in [21] it was 3160 nM; in test [22], 1580 nM; in test [23] it was 442 nM; in test [24] it was 9760 nM.
As for `Cn1cc(C2=C(c3cn(C4CCN(Cc5ccccn5)CC4)c4ccccc34)C(=O)NC2=O)c2ccccc21` [Enzastaurin], the “EC50, CellTiter-Blue viability” value was 1000 nM in test [1] and 1670 nM in [12].
`Nc1ccn([C@@H]2O[C@H](CO)[C@@H](O)C2(F)F)c(=O)n1` [Gemcitabine]: in [9], the “EC50, CellTox Green” value amounted to 9.69 nM. In addition, the “EC50, CellTiter-Glo” value in [2] was determined as 9.55 nM; in test [13], 32.1 nM; in test [15] it was 20.7 nM; in [16], 12.8 nM; in test [3] it was 6.86 nM; in test [17] it was 12.8 nM. For the same molecule, the “EC50, CellTiter-Glo” value came to 12.5 nM in test [4]; 87.3 nM in test [7]; 9.33 nM in test [19]; 18.4 nM in [8]; 47.6 nM in test [20]; 5.01 nM in test [21]. Also, the “EC50, CellTiter-Glo” value in test [22] came out at 18.5 nM; in test [23] it was 39.9 nM; in [24], 26.9 nM.
